Experimental data from the supplement of paper PMC13380429.

Key:
Settings in all cases: 72 h
Caco-2 [1] = assay: cell viability relative to DMSO; higher = less toxic
Calu-3 [2] = assay: as above
HepG2 [3] = assay: as above
U2OS [4] = assay: as above
Vero E6 [5] = assay: as above
Caco-2 [6] = assay: drug sensitivity score (DSS) for viability; higher = more toxic; extreme values may be limits of the assay
Calu-3 [7] = assay: as above
HepG2 [8] = assay: as above
U2OS [9] = assay: as above
Vero E6 [10] = assay: as above
Caco-2 [11] = assay: relative viability EC50 (midpoint between 100% and the lowest measured viability); higher = less toxic
Vero E6 [12] = assay: as above
HepG2 [13] = assay: as above
U2OS [14] = assay: as above

SMILES	cell viability (Caco-2 [1]; 1 nM)	cell viability (Caco-2 [1]; 10 nM)	cell viability (Caco-2 [1]; 100 nM)	cell viability (Caco-2 [1]; 10000 nM)	cell viability (Calu-3 [2]; 1 nM)	cell viability (Calu-3 [2]; 10 nM)	cell viability (Calu-3 [2]; 100 nM)	cell viability (Calu-3 [2]; 1000 nM)	cell viability (Calu-3 [2]; 10000 nM)	cell viability (HepG2 [3]; 1 nM)	cell viability (HepG2 [3]; 10 nM)	cell viability (HepG2 [3]; 100 nM)	cell viability (HepG2 [3]; 1000 nM)	cell viability (HepG2 [3]; 10000 nM)	cell viability (U2OS [4]; 1 nM)	cell viability (U2OS [4]; 10 nM)	cell viability (U2OS [4]; 100 nM)	cell viability (U2OS [4]; 1000 nM)	cell viability (U2OS [4]; 10000 nM)	cell viability (Vero E6 [5]; 1 nM)	cell viability (Vero E6 [5]; 10 nM)	cell viability (Vero E6 [5]; 100 nM)	cell viability (Vero E6 [5]; 1000 nM)	cell viability (Vero E6 [5]; 10000 nM)	drug sensitivity score (Caco-2 [6])	drug sensitivity score (Calu-3 [7])	drug sensitivity score (HepG2 [8])	drug sensitivity score (U2OS [9])	drug sensitivity score (Vero E6 [10])	cell viability (Caco-2 [1]; 1000 nM)	relative viability EC50 (Caco-2 [11])	relative viability EC50 (Vero E6 [12])	relative viability EC50 (HepG2 [13])	relative viability EC50 (U2OS [14])
O=C(NOCCO)c1cc(CN2OCCCC2=O)c(F)c(F)c1Nc1ccc(I)cc1F	88.1%	76.9%	67.9%	68.2%	96%	92.1%	61.7%	43.4%	32.7%	100%	70%	34%	19%	21.6%	97.2%	92.9%	90.1%	87.4%	43.7%	89.3%	85.2%	61.2%	50.7%	50.4%	13.5	15.9	26.2	4.9	15	–	–	–	–	–
C#C[C@]1(O)CC[C@H]2[C@@H]3CCC4=C(CCC(=O)C4)[C@H]3CC[C@@]21C [noretynodrel]	99.5%	105%	104%	99%	–	–	–	–	–	–	–	–	–	–	–	–	–	–	–	95.2%	99%	93.7%	95.9%	101%	0	–	–	–	0	96.1%	> 10 µM	> 10 µM	–	–
O=C(CCCN1CCN(c2ccccn2)CC1)c1ccc(F)cc1 [azaperone]	–	–	–	–	–	–	–	–	–	–	–	–	–	–	–	–	–	–	–	–	–	–	–	–	–	0.1	0.7	0	0	–	–	–	–	–
CC(=O)c1ccc2c(c1)N(CCCN1CCC(CCO)CC1)c1ccccc1S2 [piperacetazine]	–	–	–	–	–	–	–	–	–	–	–	–	–	–	–	–	–	–	–	–	–	–	–	–	–	0	0.9	0	0	–	–	–	–	–
NCC1OC(C23CC4CC(CC(C4)C2)C3)Cc2c1ccc(O)c2O (centres undefined)	114%	86.9%	94.3%	54.4%	106%	98.1%	100%	94.2%	65.3%	101%	95.9%	103%	101%	26.5%	102%	100%	99%	94.9%	92.5%	94%	97.3%	96%	100%	58.8%	4	2.6	4	0	2	85.1%	–	–	3.26 µM	> 10 µM
C/C(=N\NC(=N)N)c1cc(NC(=O)CCCCCCCCC(=O)Nc2cc(/C(C)=N/NC(=N)N)cc(/C(C)=N/NC(=N)N)c2)cc(/C(C)=N/NC(=N)N)c1 [semapimod]	99.4%	103%	106%	71%	98.5%	98.6%	102%	88.1%	65.8%	91.9%	99.6%	104%	90.3%	65.6%	101%	103%	96.3%	102%	67.6%	100%	93.4%	92.1%	94.7%	75.9%	2.5	3.3	3	1.3	1.2	91.1%	–	> 10 µM	–	–
COc1cc(/C=C/c2ccc(OC)cc2OC)cc(OC)c1 [TMS]	86.4%	97.6%	81.6%	55.5%	97%	99.6%	92.6%	106%	62.8%	98.7%	94.7%	96.1%	91.5%	46.2%	98.8%	107%	94.1%	101%	52.5%	93.6%	95.5%	94.7%	91.3%	35%	4.2	1.4	4.3	2.4	5	92.4%	–	2.08 µM	1.94 µM	–
CCOC(=O)c1ccc(N2NC(=O)/C(=C/c3ccc([N+](=O)[O-])o3)C2=O)cc1 [PYR-41]	96%	100%	95.1%	71.2%	85.5%	101%	92.2%	71.6%	62%	112%	99.7%	94.4%	105%	84.9%	93.5%	98.3%	101%	93.4%	75.5%	103%	103%	99.2%	101%	85.7%	2.6	5.7	0.1	1.8	0.1	85%	–	> 10 µM	> 10 µM	> 10 µM
Cn1cccc1/C=C1\C(=O)NC(=O)c2ccccc21	106%	103%	108%	55.2%	98.6%	97.5%	102%	91%	69%	83.2%	103%	72.1%	83%	21.2%	110%	105%	106%	101%	29.8%	104%	108%	104%	106%	71.4%	1.8	2.7	6.5	3.7	0.9	109%	–	–	1.84 µM	3.28 µM
Cc1cc(CC(C)CC(C)(C)C)n(O)c(=O)c1 (centres undefined) [piroctone-olamine]	100%	96.3%	103%	68%	98%	97.1%	102%	80%	72.4%	97.6%	102%	102%	110%	93.3%	95.1%	93.9%	100%	88%	54.8%	102%	96.1%	104%	95.5%	108%	1.8	3.4	0	4.2	0	97.6%	–	> 10 µM	> 10 µM	–
CC(C)N1CCN(c2ccc(OCC3COC(Cn4cncn4)(c4ccc(Cl)cc4Cl)O3)cc2)CC1 (centres undefined) [terconazole]	90.6%	98.2%	94.3%	70.9%	103%	105%	89.1%	97.8%	54.7%	124%	121%	124%	89.8%	62.6%	97.4%	104%	105%	104%	93.8%	116%	96.8%	106%	90.8%	76.8%	0.9	2.6	3.3	0	1.9	108%	–	> 10 µM	–	> 10 µM
CCN1C(=O)NC(c2ccccc2)C1=O (centres undefined) [ethotoin]	–	–	–	–	–	–	–	–	–	–	–	–	–	–	–	–	–	–	–	–	–	–	–	–	–	–	0	0	0	–	–	–	–	–
COc1cc2c(cc1O)CC[C@@H]1[C@@H]2CC[C@]2(C)[C@@H](O)CC[C@@H]12 [2-methoxyestradiol]	99.1%	105%	101%	58.1%	103%	107%	106%	98.9%	60.2%	96.1%	99.9%	91.7%	115%	33.8%	96.4%	95.1%	102%	77.8%	46.5%	99.6%	97.8%	98.9%	94.8%	36.2%	4.9	2.1	2.8	5.9	4.3	77.4%	–	2.5 µM	3.99 µM	1.15 µM
Cc1ccc(-c2c(-c3nn(C)c4ncnc(N5CC[C@H](N6CCCCC6)C5)c34)cnn2C)cc1	106%	102%	106%	100%	–	–	–	–	–	–	–	–	–	–	104%	99.5%	99%	98.9%	100%	–	–	–	–	–	0	–	–	0	–	96.1%	> 10 µM	–	–	> 10 µM
CCOc1ccc2nc(S(N)(=O)=O)sc2c1 [ethoxzolamide]	–	102%	135%	95.5%	95.3%	101%	101%	101%	113%	101%	104%	98.6%	125%	116%	96.6%	97.9%	97.6%	99.3%	105%	84.1%	93.1%	89.4%	96.3%	116%	0	0	0	0	0	98.6%	–	–	–	–
C#C[C@]1(O)CC[C@H]2[C@@H]3CCC4=Cc5oncc5C[C@]4(C)[C@H]3CC[C@@]21C [danazol]	–	–	–	–	–	–	–	–	–	–	–	–	–	–	–	–	–	–	–	–	–	–	–	–	–	0	0	0	0	–	–	–	–	–
N.N.O=C([O-])C[O-].[Pt+2] [nedaplatin]	–	–	–	–	–	–	–	–	–	–	–	–	–	–	–	–	–	–	–	–	–	–	–	–	–	–	0	–	–	–	–	–	–	–
